Experimental data taken from patent publication US9579299B2, “CNS pharmaceutical compositions and methods of use” (TARGIA PHARMACEUTICALS, priority 2008, dated 2017).
Several values for one entry are separate records, joined by “and”; a condition that tells them apart may be missing. Equal values may be shown once.

Tests used:
[1] = parent drug; cited from earlier work
four healthy volunteers = test: Example 7: Stanford Sleepiness Scale study with alprazolam; type: in vivo, human; conditions: for time until subjects were asleep: all four subjects; for 2 Hr SSS / 4 Hr SSS / 6 Hr SSS: individual subjects
Description: The research study was performed on four healthy volunteers, ages 25-41 years old and 60-75 kg. The study was carried out in two sessions with one week in between. During the study volunteers completed a test to measure sleepiness by Stanford Sleepiness Scale (SSS). This SSS test was done before doses of the compositions being evaluated and 2, 4 and 6 hours after such doses (see FIG. 5 for an illustration of the study scheme).
At the first session, volunteers received the treatment (Alprazolam 1.0 mg)+PLAC (placebo)+ and 15 minutes later another PLAC. […] Their SSS score at 2 hour time point was 6 (woozy, fighting sleep). […] The other 2 patients slept through the 2, 4 and 6 hour testing.
At the second study session, volunteers received the treatment (Alprazolam 1.0 mg+60 mg of pseudoephedrine) and 15 minutes later received 400 mg of guaifenesin. […] After 2 and half hours, three out of the four subjects woke up and stayed awake for the rest of the time. Their SSS scores for 4 hour time point test were 2, 3 and 5, for 6 hour time point test SSS scores were 1, 3, 2. The fourth subject woke up for the 6 hour time point test and their SSS score was 3.

[2] = CNS active agent; cited from earlier work
[3] = system: 8 patients suffering from GAD; test: Example 10: single blind trial of alprazolam with neuromodulators in GAD; type: in vivo, human; conditions: alprazolam 1 mg with pseudoephedrine 60 mg, guaifenesinER 600 mg 15 minutes later; one week
Description: The study was a single blind trial in which a panel of 8 patients suffering from GAD were administered alprazolam (1 mg), pseudoephedrine (60 mg), and guaifenesinER (600 mg). Subjects underwent an initial screening and then two weeks of testing with the medications of the study (see FIG. 7 for an illustration of the study scheme). Fourteen days prior to the first treatment session, subjects were screened with a standard medical/psychiatric history and physical exam (Screening Visit, Visit 1). Standard laboratory tests were performed at Screening Visit 1 including those of chemistry, hematology and urinalysis, urine test for drugs of abuse, HIV and hepatitis B and C serology tests, 12-lead resting electrocardiogram, and serum pregnancy test for females.
Prior to administration of the placebo treatment, the subjects were rated on the Hamilton Anxiety Scale, Quality of Life Questionnaire, and the Stanford Sleepiness Scale (SSS) (Visit 2, data not shown). Subjects complained of oversedation (SSS score of 4 or greater) from their psychopharmacologic regimen, which included benzodiazepine or alprazolam therapy.
Subjects were given a placebo medication that mimics the two neuromodulators for 7 days and underwent another series of tests at the end of this 7-day period (Visit 3). […]

[4] = system: one GAD patient, a person; test: Example 11: alprazolam with neuromodulators in one GAD patient; type: in vivo, human
Description: The study was performed on one GAD patient. Fourteen days prior to the first treatment session, the subject was screened with a standard medical/psychiatric history and physical exam. The subject was rated on the Hamilton Anxiety Scale the Stanford Sleepiness Scale (SSS).
During their second visit, immediately prior to administration of alprazolam and placebo, the subject was rated on the Hamilton Anxiety Scale, Quality of Life Questionaire and SSS (pre dose, time 0). Following these tests, the subject received a regular morning alprazolam dose and placebo to mimic pseudoephedrine. Fifteen minutes later, the subject received approximately 120 ml of water and placebo to mimic guaifenesin. The subject was rated on the SSS at 2 hours (anticipated peak plasma concentration) and 4 hours following administration alprazolam. The subject was given enough placebo medication to last for one week (until Visit 3) with the exact instructions to take their medications in the same manner as described above. During this 7-day period, the subject completed an SSS questionaire (Table 16, Placebo). Ratings on the SSS were recorded immediately before (pre) and 3 hours following (post) administration of alprazolam.
During Visit 3, the subject was rated on the Hamilton Anxiety Scale, Quality of Life Questionaire, and SSS 3 hours after initial dose. The subject was then given the active neuromodulators and told to start with them on the next day following ingestion of the regular alprazolam medication. The subject took pseudoephedrine with alprazolam and Mucinex 15 minutes later (neuromodulators were given no more than twice a day and not after 6 PM). Three hours after each dose, the subject recorded their SSS measurements (Table 16, Treatment). […] Throughout this week, the subject recorded SSS scores of 1 (high alertness, no sedatition).

[5] = First Visit Day on Placebo: Alprazolam 1.0 mg + placebo
[6] = First Visit Day on Placebo: Alprazolam 1.0 mg + placebo, listed as alprazolam
[7] = Second Visit Day on Active Neuromodulation: Alprazolam 1.0 mg + 60 mg pseudoephedrine, 400 mg guaifenesin 15 minutes later
[8] = Second Visit Day on Active Neuromodulation: Alprazolam 1.0 mg + 60 mg pseudoephedrine, 400 mg guaifenesin 15 minutes later, listed as alprazolam

Q: For `Cc1nnc2n1-c1ccc(Cl)cc1C(c1ccccc1)=NC2` [Alprazolam], which “Elimination Half-Life” value [1] is on record?
A: 6 to 12 h

Q: What about the “time until subjects were asleep” value (four healthy volunteers; Alprazolam 1.0 mg + placebo) of the same compound?
A: within an hour and a half

Q: And the “time until subjects were asleep” value (four healthy volunteers; Alprazolam 1.0 mg + pseudoephedrine, guaifenesin 15 minutes later)?
A: within an hour and a half

Q: And the “2 Hr SSS” value (four healthy volunteers; [5])?
A: 6

Q: What about the “4 Hr SSS” value (four healthy volunteers; [5]) of the same compound?
A: 6

Q: And the “2 Hr SSS” value (four healthy volunteers; [6])?
A: X - asleep (3×) and 6

Q: What about the “4 Hr SSS” value (four healthy volunteers; [6]) of the same compound?
A: X - asleep (3×) and 6

Q: What about the “6 Hr SSS” value (four healthy volunteers; [6]) of the same compound?
A: X - asleep (3×) and 3

Q: What about the “2 Hr SSS” value (four healthy volunteers; [7]) of the same compound?
A: X - asleep

Q: And the “4 Hr SSS” value (four healthy volunteers; [7])?
A: 2 and 3 and 5

Q: And the “6 Hr SSS” value (four healthy volunteers; [7])?
A: 1 and 3 and 2

Q: And the “4 Hr SSS” value (four healthy volunteers; [8])?
A: 2 and X - asleep and 5 and 3

Q: And the “6 Hr SSS” value (four healthy volunteers; [8])?
A: 1 and 3 (2×) and 2

Q: And the total sleep time (four healthy volunteers; second session, Alprazolam administrated with neuromodulators, all four patients)?
A: 1.5 to 2.5 h

Q: And the Tmax [2]?
A: 1 to 2 h

Q: And the bioactivity [2]?
A: 55%

Q: What about the “sedation-related effects as measured by the SSS” value [3] of the same compound?
A: significantly reduced

Q: And the “alertness and sedation by SSS, in words” value ([4]; 7-day period on alprazolam + placebo)?
A: significantly reduced alertness and increased sedation

Q: What about the “SSS Score” value ([4]; Placebo (alprazolam + placebo), post: 3 hours following alprazolam, Days 1-7) of the same compound?
A: X - asleep

Q: And the “SSS Score” value ([4]; Placebo column, 3 h post dose (before Day 1))?
A: X - asleep

Q: And the “SSS Score” value ([4]; Placebo column, Screen)?
A: 6

Q: And the “SSS Score” value ([4]; Treatment (alprazolam + pseudoephedrine, Mucinex 15 minutes later), post: three hours after dose, Days 8-15)?
A: 1

Q: What about the “SSS Score” value ([4]; Treatment (alprazolam + pseudoephedrine, Mucinex 15 minutes later), pre, Days 10-15) of the same compound?
A: 1

Q: What about the “efficacy by Hamilton Anxiety Scale” value ([4]; alprazolam + active neuromodulators) of the same compound?
A: did not show any reduction in the efficacy

Q: What about the “SSS data relative to placebo treatment, in words” value ([4]; week on alprazolam + active neuromodulators) of the same compound?
A: dramatic improvement relative to the placebo treatment
